Here are results for 89 compounds from a melting point compilation (Tetko et al.; mined from patent text by program, amines drawn as free bases though some values may be those of a salt).

What is called melting point is the temperature of the solid-liquid transition.

A value given as a limit tells only on which side of the number the result lay.

Turning to `COc1cnc(CSc2nc3cc(OC(F)(F)F)ccc3[nH]2)cc1OC`, the melting point was in the range of 92 to 93 °C.
In turn, `COC(=O)c1cc([N+](=O)[O-])ccc1Nc1ccc(CCc2ccc(Cl)c(Cl)c2)cc1` returned a melting point of 107 to 108 °C.
The compound `N#Cc1cn(C(CO)CCc2ccccc2)cn1` (centres undefined) showed a melting point of 111 to 115 °C.
Regarding `CCCCc1c(-c2ncccc2C(=O)O)n(-c2ccccc2)n(-c2ccccc2)c1=O`, the melting point was 139 to 141 °C.
`Cc1cc(-c2cc(C(F)(F)F)nc(-n3cnc(-c4cccc(S(N)(=O)=O)c4)c3)n2)ccc1C(F)(F)F` displayed a melting point of 180 °C.
`CCc1ccc2c(-c3cnc4[nH]cc(C(=O)N[C@H](C)C(=O)N5CC(C#N)C5)c4n3)nn(C)c2c1` had a melting point of 185 to 190 °C.
In turn, `COC[C@H]1CCCN1NC(=O)Nc1cccc2c1C(=O)c1c-2n[nH]c1-c1ccc(C(=O)N2CCN(C(=O)OC(C)(C)C)CC2)s1` displayed a melting point above 300 °C.
`CCOc1ccc(-c2nc(-c3ccc(OC4OC(COC(C)=O)C(OC(C)=O)C(OC(C)=O)C4OC(C)=O)cc3)cs2)cc1OCC` (centres undefined) showed a melting point of 180 to 181 °C.
Under `CCOC(=O)c1oc(I)nc1C` stands 110 to 112 °C; under `OCc1ccccc1CCCc1cc2c(cc1O)CCO2`, 110 to 112 °C; under `CCCCCCCCC(O)C(=O)NCCSSCCNC(=O)C(O)CCCCCCCC` (centres undefined), 180 to 183 °C.
Compound `Cc1[nH]c(-c2ccccc2)c2nc(-c3ccccc3)[nH]c(=O)c12` came in with a melting point of 345 to 348 °C.
Consider `C[C@@H](n1cnc2cc(-c3ccc(C(=N)NC#N)cc3)sc2c1=O)[C@](O)(Cn1cncn1)c1ccc(F)cc1F`, for which the melting point was in the range of 275 to 278 °C.
The figure for `Cc1nc2ccccn2c(=O)c1CCN1CCN(c2cccc(Cl)c2)CC1` is 112 to 113 °C; for `CN1C(=O)C(CCCCBr)Sc2ccccc21` (centres undefined) it is 116 °C.
On to `CC(C#N)c1coc2cc(I)ccc12` (centres undefined), for which the melting point was in the range of 71 to 72 °C.
The figure for `CCc1ccc(CC2N=C(c3ccc(F)cc3)c3cc(Cl)ccc3NC2=O)cc1CC` (centres undefined) is 88 to 90 °C; for `Cc1nc2c(OCc3ccccc3)cc(Br)cc2n1C` it is 177 to 179 °C.
The compound `N=C1C=CC=CC1Cc1cccc2c1NCC2` (centres undefined) returned a melting point of 62 to 63 °C.
The compound `COC(CNc1nc(-c2ccccc2)c2cc(Cl)ccc2n1)OC` showed a melting point of 122 to 123 °C.
`Nc1nc2c(OCCO)cccc2o1` showed a melting point of 124 to 126 °C.
Regarding `CC(=O)N1CC(CCN2CC=C(c3c[nH]c4cc(Cl)ccc34)CC2)c2cc(F)ccc21` (centres undefined), the melting point fell in the range of 183 to 185 °C.
Take `CCCSc1nc(-c2ccc(Cl)cc2)c(CCC(=O)O)o1`: the melting point was in the range of 128 to 129 °C.
In turn, `CC(C)(C(=O)O)N1COC(C(F)F)=C(c2ccccc2)C1=O` registered a melting point of 149 to 151 °C.
`COc1ccc(-c2cc3cc(OC)cc(C(=O)N(C)OC)c3o2)cc1` had a melting point of 109 to 111 °C.
`CCOC(=O)[C@H](Cc1ccc(-c2c(OC)cc(CCO)cc2OC)cc1)NC(=O)c1c(F)cccc1F` registered a melting point of 115 to 117 °C.
`CP(C)(=O)CCCOC(=O)c1ccccc1Nc1ccnc2cc(Cl)ccc12` had a melting point of 162 °C.
The figure for `CCOC(=O)/C=C/c1ccc(OC(C)C)nc1Oc1ccc(Cl)cc1Cl` is 92 to 93 °C; for `C#Cc1cc2nc(O)c(O)nc2cc1[N+](=O)[O-]` it is above 300 °C.
Turning to `Oc1cccc(-c2ccc3c(-c4cccnc4)coc3c2)c1`, the melting point lay in the range of 205 to 207 °C.
On to `CCS(=O)(=O)c1ccc2c(c1)nc(CC(C)(C)C)n2CC1CCCO1` (centres undefined), for which the melting point came to 142 °C.
The figure for `N#Cc1c(Cl)ccc(C(=O)O)c1Cl` is 230 to 232 °C; for `CC(C)(C)CC(C)(C)c1cc(-c2ccccc2)c(O)c(-n2nc3ccc(-c4ccccc4)cc3n2)c1` it is 123 to 125 °C.
The figure for `Cc1nc(C)c(Cn2nnnc2-c2cccc(Cl)c2Cl)s1` is 174 to 175 °C; for `COc1ccc(CNc2ccc(F)c(Cl)c2)cc1OC` it is 127 to 128 °C.
With `COc1ccc2cc(CCc3ccc(OCC(O)CNC(C)C)cc3)n(C)c(=O)c2c1` (centres undefined), the melting point lay in the range of 137 to 139 °C.
Compound `Fc1ccc(-c2nc3ccc(N4CCC(N5CCCC5)CC4)nn3c2-c2ccnc3[nH]ccc23)cc1` had a melting point of 261 to 264 °C.
`O=c1ncc(Br)cn1CCC(O)Cl` (centres undefined): the melting point was 162 to 164 °C.
Compound `COc1ccc(F)cc1C(C)(C)c1cc(F)ccc1O` had a melting point of 90 °C.
Take `CC(=O)c1cnccc1NC(=O)C(C)(C)C`: the melting point stood at 95 °C.
Regarding `CCOc1nn(Cc2ccnc(OCc3cn4c(-c5ccccc5)cccc4n3)c2)cc1CCC(=O)O`, the melting point lay in the range of 177 to 178 °C.
On to `COc1cc2cc(C(=O)N3CC(CCl)c4c3cc(N)c3ncccc43)[nH]c2c(OC)c1OC` (centres undefined), for which the melting point lay within 225 to 227 °C.
In turn, `O=C1CCC2CC(c3ccccc3)c3cccc1c32` (centres undefined) came in with a melting point of 99 °C.
`CCCCS(=O)(=O)N(Cc1ccc(-c2ccccc2-c2nnn[nH]2)cc1)[C@@H](C)C(=O)O` returned a melting point of 90 °C.
In turn, `CN1Cc2c(C(=O)NN)ncn2-c2ccc(F)c(Cl)c2C1=O` yielded a melting point of 308 to 310 °C.
Compound `CCN(CC)C(=O)COc1ccc(S(=O)(=O)c2ccc(O)cc2)cc1` showed a melting point of 223 to 226 °C.
As to `CCOC(=O)c1sc(C2=C(C)NC(C)=C(C(=O)OC)C2c2ccccc2[N+](=O)[O-])nc1C` (centres undefined), the melting point fell in the range of 191 to 192 °C.
Take `CCc1ncnc(NC2CCc3cc(O)ccc3C2)c1Cl` (centres undefined): the melting point is 178 °C.
In turn, `N#Cc1[nH]c2ccc(C(O)(C(F)(F)F)C(F)(F)F)cc2c1-c1ccccc1` yielded a melting point of 247 to 249 °C.
As for `O=c1oc(-c2cccc(S(=O)(=O)C(F)(F)F)c2)nc2ccccc12`, the melting point lay in the range of 96 to 102 °C.
With `C[C@@H]1N(C)C(C)(C)CO[C@@]1(O)c1cccc(Cl)c1`, the melting point was 128 to 129 °C.
In the case of `CCCCCCCCCCNC(=O)N(C)O`, the melting point was 74 to 76 °C.
The figure for `CC1N(C)c2cc([N+](=O)[O-])ccc2C1(C)C` (centres undefined) is 55 to 59 °C; for `O=C1NOCc2ccccc21` it is 123 to 125 °C.
`CCCN(CCc1c[nH]c2ccc(F)cc12)C1COc2c(F)ccc(C(N)=O)c2C1` (centres undefined): the melting point amounted to 125 °C.
Compound `CCCN1CC(CO)CC2c3cccc4[nH]cc(c34)CC21` (centres undefined) returned a melting point of 166 to 168 °C.
`CC(C)(C(=O)O)C1(Br)OC2=CC=CC2=CC1c1ccccc1` (centres undefined) had a melting point of 183 to 196 °C.
`CCOC(=O)NCc1cccc2c1C(=O)N(C1CCC(=O)NC1=O)C2=O` (centres undefined) had a melting point of 187 to 189 °C.
`O=C1CCCCN1S(=O)(=O)c1ccc(N2CCCCC2)cc1` came in with a melting point of 140 to 145 °C.
With `O=C(O)CC1=C(n2nc(-c3c(-c4ccccc4)nn4ccccc34)ccc2=O)CCCCC1`, the melting point fell in the range of 171 to 172 °C.
For the compound `Cn1ncc(/C=C/C(=O)O)c1-c1ccoc1`, the melting point is 218 to 219 °C.
Under `CC(C)c1cccc(C(C)C)c1NC(=O)NC1CCc2ccccc2C1` (centres undefined) stands 214 to 215 °C.
`O=[N+]([O-])c1cnc2ccc(Cl)cc2c1Cl` came in with a melting point of 118 to 120 °C.
Compound `CCCCc1nc2cccc(CC#N)c2n1Cc1ccccc1Cl` yielded a melting point of 124 to 125 °C.
`O=C1C(=O)c2ccccc2C2=C1SCC(CNCCc1ccccc1)O2` (centres undefined) came in with a melting point of 80 to 82 °C.
The compound `CN(C)C1CC=C(c2ccccc2Cc2ccccc2)CC1` (centres undefined) displayed a melting point of 44 to 45 °C.
Consider `O=C(O)c1ccc(-c2nc(-c3ccc(C(F)(F)F)cc3)cs2)cc1`, for which the melting point was in the range of 164 to 165 °C.
Turning to `O=c1[nH]c2cccnc2c2nc(-c3ccccc3)cn12`, the melting point was 329 to 330 °C.
In turn, `COc1ccc(C(=O)c2cccc(C(F)(F)F)c2F)c(OC)c1` gave a melting point of 79 to 82 °C.
For `COC(=O)c1cc2c(C)ccc(C)c2n1C(=O)Oc1ccccc1`, the melting point is 83 to 84 °C.
Compound `CCCCCCOc1ccc(CCC(=O)O)cc1` had a melting point of 70 to 72 °C.
Under `CC(=O)OC1CSC(Oc2cc(F)ccc2-c2cccnc2)C(OC(C)=O)C1OC(C)=O` (centres undefined) stands 66 °C; under `C=C(C=O)c1ccc(Cl)cc1[N+](=O)[O-]`, 87 to 88 °C; under `CC(=O)Nc1nc(C)c(-c2ccc(S(C)(=O)=O)cc2)s1`, 251 to 253 °C.
The compound `CCc1cc2c(s1)-n1c(Cl)nnc1CN=C2c1ccccc1Cl` had a melting point of 133 to 135 °C.
The figure for `CC(=O)C1Cc2cc(CCN3CCC(c4noc5cc(F)ccc45)CC3)sc2CN1` (centres undefined) is 170 to 172 °C; for `C=Cc1ccc(S(=O)(=O)Nc2ncnc(OCCO)c2Cc2c(OC)cccc2OC)cc1` it is 138 to 139 °C.
Under `C=C(c1ccc(OC)c(C)c1)c1ccc(C)c(Br)c1` stands 48 to 51 °C; under `O=C1CCCc2ccc(OCCCCN3CCN(c4cccc5c4CCC5)CC3)nc2N1`, 207 to 208 °C.
With `CC1=NC(NC(=O)Nc2cccc(C)n2)C(=O)N(CC(=O)N2CC3CCC(CC3)C2)c2c(C)cccc21` (centres undefined), the melting point was in the range of 151 to 152 °C.
In turn, `COCOc1ccc(CO)c2cccc(C)c12` registered a melting point of 91 to 93 °C.
As for `C=Cn1cc(C(=O)O)c(=O)c2cc(F)c(N3CCC4CCC(C3)N4C)cc21` (centres undefined), the melting point lay in the range of 214 to 215 °C.
As to `CCOC(=O)c1sc(OCC)c2c1CCc1cnn(C)c1-2`, the melting point was in the range of 109 to 110 °C.
The compound `COC(=O)c1cc(C(=O)N2CCCOCC2)c2cc(Cc3ccc(F)cc3)cnc2c1O` gave a melting point of 136 to 137 °C.
In the case of `N#Cc1c[nH]c(-c2ccccc2F)c1`, the melting point was in the range of 158 to 160 °C.
Under `CC1CC2C3CCC4=CC(=O)C=CC4(C)C3=CCC2(C)C1C(=O)CN1CCN(c2cc(NC3CCCC3)nc(NC3CCCC3)n2)CC1` (centres undefined) stands 180 to 185 °C.
For `Cc1ccc(S(=O)(=O)O[C@H](C)C(=O)N2C(=O)N(C)C[C@H]2C(=O)OC(C)(C)C)cc1`, the melting point fell in the range of 78 to 80 °C.
`CC(c1ccccc1)N1CCN(c2nn(C)c3c2Cc2ccccc2-3)CC1` (centres undefined): the melting point lay in the range of 138 to 139 °C.
For `CCCCOc1ccc(S(=O)(=O)OC2CN(S(=O)(=O)c3ccc(OCCCC)cc3)C2)cc1`, the melting point fell in the range of 90 to 93 °C.
